Experimental data taken from patent US9978954B2, “Benzobis (thiadiazole) derivative, ink comprising same, and organic electronic device comprising same” (UBE INDUSTRIES, LTD., priority 2013, dated 2018).

Experiment: Evaluation of solubility in organic solvents (visual observation of complete dissolution)
Assay type: physicochemical
Method: [Evaluation of Solubility]
The evaluation of the solubility of the synthesized compound was conducted by the following method.
About 2-3 mg of the compound was precisely weighed, and each solvent was added to the compound such that a predetermined concentration of the solute (0.5 wt %, 0.3 wt %, 0.2 wt %, 0.1 wt %, 0.05 wt %, or 0.03 wt %) was reached. The resultant mixture was stirred for 30 minutes at a predetermined temperature, and then it was evaluated by visual appearance observation whether or not the solute (synthesized compound) was completely dissolved in the solvent, which was the result of the evaluation of the solubility. As the solvent, chloroform (boiling point 61° C.), toluene (boiling point 111° C.), xylene (boiling point 144° C.), mesitylene (boiling point 165° C.), chlorobenzene (boiling point 130° C.), para-chlorotoluene (boiling point 162° C.), and ortho-dichlorobenzene (boiling point 181° C.) were used.

[1] = chloroform, 25° C. (room temperature)
[2] = 1-methylnaphthalene, 25° C. (room temperature)

FC(F)(F)Sc1ccc(-c2ccc(-c3c4c(c(-c5ccc(-c6ccc(SC(F)(F)F)cc6)s5)c5nsnc35)N=S=N4)s2)cc1 [Compound (RC5), 4,8-bis[5-(4-((trifluoromethyl)thio)phenyl)thiophene-2-yl]benzo[1,2-c:4,5-c′]bis[1,2,5]thiadiazole, reference compound]
solubility (solute concentration completely dissolved) (chlorobenzene, 100° C.): < 0.03 wt %
solubility (solute concentration completely dissolved) (mesitylene, 100° C.): < 0.03 wt %
solubility (solute concentration completely dissolved) (mesitylene, 130° C.): < 0.3 wt %
solubility (solute concentration completely dissolved) (ortho-dichlorobenzene, 100° C.): < 0.03 wt %
solubility (solute concentration completely dissolved) (toluene, 100° C.): < 0.03 wt %

CCCCCCCCc1cc(-c2ccc(-c3c4c(c(-c5ccc(-c6ccc(C#N)c(CCCCCCCC)c6)s5)c5nsnc35)N=S=N4)s2)ccc1C#N [Compound (C14), 4,8-bis[5-(4-cyano-3-octylphenyl)thiophene-2-yl]benzo[1,2-c:4,5-c′]bis[1,2,5]thiadiazole]
solubility (solute concentration completely dissolved) (chlorobenzene, 80° C.): ≥ 0.3 wt %
solubility (solute concentration completely dissolved) [1]: ≥ 0.1 wt %
solubility (solute concentration completely dissolved) (chloroform, 60° C.): ≥ 0.2 wt %
solubility (solute concentration completely dissolved) (ortho-dichlorobenzene, 60° C.): ≥ 0.3 wt %
solubility (solute concentration completely dissolved) (para-chlorotoluene, 100° C.): ≥ 0.3 wt %

CCCCCCc1cc(-c2ccc(-c3c4c(c(-c5ccc(-c6cc(CCCCCC)c(C#N)c(CCCCCC)c6)s5)c5nsnc35)N=S=N4)s2)cc(CCCCCC)c1C#N [Compound (C22), 4,8-bis[5-(4-cyano-3,5-dihexylphenyl)thiophene-2-yl]benzo[1,2-c:4,5-c′]bis[1,2,5]thiadiazole]
solubility (solute concentration completely dissolved) [2]: ≥ 0.1 wt %
solubility (solute concentration completely dissolved) [1]: ≥ 0.1 wt %
solubility (solute concentration completely dissolved) (ortho-dichlorobenzene, 25° C.): ≥ 0.1 wt %
solubility (solute concentration completely dissolved) (toluene, 25° C.): ≥ 0.3 wt %

CCCCCCCCCCc1cc(-c2ccc(-c3c4c(c(-c5ccc(-c6ccc(C#N)c(CCCCCCCCCC)c6)s5)c5nsnc35)N=S=N4)s2)ccc1C#N [Compound (C16), 4,8-bis[5-(4-cyano-3-decylphenyl)thiophene-2-yl]benzo[1,2-c:4,5-c′]bis[1,2,5]thiadiazole]
solubility (solute concentration completely dissolved) (chlorobenzene, 80° C.): ≥ 0.3 wt %
solubility (solute concentration completely dissolved) (chloroform, 60° C.): ≥ 0.2 wt %
solubility (solute concentration completely dissolved) (ortho-dichlorobenzene, 80° C.): ≥ 0.3 wt %
solubility (solute concentration completely dissolved) (para-chlorotoluene, 80° C.): ≥ 0.3 wt %

CCCCCCCCc1ccc(-c2ccc(-c3c4c(c(-c5ccc(-c6ccc(CCCCCCCC)c(C#N)c6)s5)c5nsnc35)N=S=N4)s2)cc1C#N [Compound (C26), 4,8-bis[5-(3-cyano-4-octylphenyl)thiophene-2-yl]benzo[1,2-c:4,5-c′]bis[1,2,5]thiadiazole]
solubility (solute concentration completely dissolved) (1-methylnaphthalene, 60° C.): ≥ 0.3 wt %
solubility (solute concentration completely dissolved) [1]: ≥ 0.2 wt %
solubility (solute concentration completely dissolved) (mesitylene, 80° C.): ≥ 0.3 wt %
solubility (solute concentration completely dissolved) (ortho-dichlorobenzene, 60° C.): ≥ 0.3 wt %
solubility (solute concentration completely dissolved) (toluene, 80° C.): ≥ 0.3 wt %

CCCCC(CC)Cc1ccc(-c2ccc(-c3c4c(c(-c5ccc(-c6ccc(CC(CC)CCCC)c(C(F)(F)F)c6)s5)c5nsnc35)N=S=N4)s2)cc1C(F)(F)F (stereo not shown) [Compound (C31)]
solubility (solute concentration completely dissolved) [2]: ≥ 0.3 wt %
solubility (solute concentration completely dissolved) [1]: ≥ 0.2 wt %
solubility (solute concentration completely dissolved) (mesitylene, 25° C.): ≥ 0.3 wt %
solubility (solute concentration completely dissolved) (ortho-dichlorobenzene, 25° C.): ≥ 0.3 wt %
solubility (solute concentration completely dissolved) (toluene, 25° C.): ≥ 0.3 wt %

4,8-bis[5-(4-cyano-3-(2-methylhexyl)phenyl)thiophene-2-yl]benzo[1,2-c:4,5-c′]bis[1,2,5]thiadiazole [Compound (C29)]
solubility (solute concentration completely dissolved) (1-methylnaphthalene, 60° C.): ≥ 0.3 wt %
solubility (solute concentration completely dissolved) (chloroform, 60° C.): ≥ 0.1 wt %

FC(F)(F)Oc1ccc(-c2ccc(-c3c4c(c(-c5ccc(-c6ccc(OC(F)(F)F)cc6)s5)c5nsnc35)N=S=N4)s2)cc1 [Compound (RC1), 4,8-bis[5-(4-(trifluoromethoxy)phenyl)thiophene-2-yl]benzo[1,2-c:4,5-c′]bis[1,2,5]thiadiazole, reference compound]
solubility (solute concentration completely dissolved) (chlorobenzene, 100° C.): < 0.03 wt %
solubility (solute concentration completely dissolved) (mesitylene, 100° C.): < 0.03 wt %
solubility (solute concentration completely dissolved) (ortho-dichlorobenzene, 100° C.): < 0.03 wt %
solubility (solute concentration completely dissolved) (toluene, 100° C.): < 0.03 wt %

FC(F)(F)c1cccc(-c2ccc(-c3c4c(c(-c5ccc(-c6cccc(C(F)(F)F)c6)s5)c5nsnc35)N=S=N4)s2)c1 [Compound (C2), 4,8-bis[5-(3-(trifluoromethyl)phenyl)thiophene-2-yl]benzo[1,2-c:4,5-c′]bis[1,2,5]thiadiazole]
solubility (solute concentration completely dissolved) (chlorobenzene, 80° C.): ≥ 0.1 wt %
solubility (solute concentration completely dissolved) (chlorobenzene, 100° C.): ≥ 0.3 wt %
solubility (solute concentration completely dissolved) (mesitylene, 25° C.): ≥ 0.03 wt %
solubility (solute concentration completely dissolved) (mesitylene, 80° C.): ≥ 0.1 wt %
solubility (solute concentration completely dissolved) (ortho-dichlorobenzene, 80° C.): ≥ 0.1 wt %
solubility (solute concentration completely dissolved) (ortho-dichlorobenzene, 100° C.): ≥ 0.5 wt %
solubility (solute concentration completely dissolved) (toluene, 25° C.): ≥ 0.03 wt %
solubility (solute concentration completely dissolved) (toluene, 100° C.): ≥ 0.1 wt %

CCCCCCCCCCCCCCc1cc(-c2ccc(-c3c4c(c(-c5ccc(-c6ccc(C#N)c(CCCCCCCCCCCCCC)c6)s5)c5nsnc35)N=S=N4)s2)ccc1C#N [Compound (C18), 4,8-bis[5-(4-cyano-3-tetradecylphenyl)thiophene-2-yl]benzo[1,2-c:4,5-c′]bis[1,2,5]thiadiazole]
solubility (solute concentration completely dissolved) (1-methylnaphthalene, 80° C.): ≥ 0.3 wt %
solubility (solute concentration completely dissolved) (chlorobenzene, 100° C.): ≥ 0.3 wt %
solubility (solute concentration completely dissolved) (chloroform, 60° C.): ≥ 0.2 wt %
solubility (solute concentration completely dissolved) (ortho-dichlorobenzene, 80° C.): ≥ 0.3 wt %

CCCCCCCCCCCCc1cc(-c2ccc(-c3c4c(c(-c5ccc(-c6ccc(C#N)c(CCCCCCCCCCCC)c6)s5)c5nsnc35)N=S=N4)s2)ccc1C#N [Compound (C17), 4,8-bis[5-(4-cyano-3-dodecylphenyl)thiophene-2-yl]benzo[1,2-c:4,5-c′]bis[1,2,5]thiadiazole]
solubility (solute concentration completely dissolved) (chlorobenzene, 80° C.): ≥ 0.3 wt %
solubility (solute concentration completely dissolved) (chloroform, 60° C.): ≥ 0.2 wt %
solubility (solute concentration completely dissolved) (ortho-dichlorobenzene, 60° C.): ≥ 0.3 wt %
solubility (solute concentration completely dissolved) (para-chlorotoluene, 80° C.): ≥ 0.3 wt %
solubility (solute concentration completely dissolved) (xylene, 100° C.): ≥ 0.3 wt %

FC(F)(F)Sc1cccc(-c2ccc(-c3c4c(c(-c5ccc(-c6cccc(SC(F)(F)F)c6)s5)c5nsnc35)N=S=N4)s2)c1 [Compound (C6), 4,8-bis[5-(3-((trifluoromethyl)thio)phenyl)thiophene-2-yl]benzo[1,2-c:4,5-c′]bis[1,2,5]thiadiazole]
solubility (solute concentration completely dissolved) (chlorobenzene, 80° C.): ≥ 0.1 wt %
solubility (solute concentration completely dissolved) (chlorobenzene, 130° C.): ≥ 0.5 wt %
solubility (solute concentration completely dissolved) (mesitylene, 80° C.): ≥ 0.1 wt %
solubility (solute concentration completely dissolved) (mesitylene, 130° C.): ≥ 0.3 wt %
solubility (solute concentration completely dissolved) (ortho-dichlorobenzene, 80° C.): ≥ 0.1 wt %
solubility (solute concentration completely dissolved) (ortho-dichlorobenzene, 130° C.): ≥ 0.5 wt %
solubility (solute concentration completely dissolved) (toluene, 80° C.): ≥ 0.1 wt %

CCCCCCCCc1ccc(-c2ccc(-c3c4c(c(-c5ccc(-c6ccc(CCCCCCCC)c(C(F)(F)F)c6)s5)c5nsnc35)N=S=N4)s2)cc1C(F)(F)F [Compound (C25), 4,8-bis[5-(4-octyl-3-(trifluoromethyl)phenyl)thiophene-2-yl]benzo[1,2-c:4,5-c′]bis[1,2,5]thiadiazole]
solubility (solute concentration completely dissolved) (1-methylnaphthalene, 60° C.): ≥ 0.3 wt %
solubility (solute concentration completely dissolved) (chloroform, 60° C.): ≥ 0.2 wt %
solubility (solute concentration completely dissolved) (mesitylene, 60° C.): ≥ 0.3 wt %
solubility (solute concentration completely dissolved) (ortho-dichlorobenzene, 60° C.): ≥ 0.3 wt %
solubility (solute concentration completely dissolved) (toluene, 60° C.): ≥ 0.3 wt %

CCCCCCc1cc(-c2ccc(-c3c4c(c(-c5ccc(-c6ccc(C#N)c(CCCCCC)c6)s5)c5nsnc35)N=S=N4)s2)ccc1C#N [Compound (C8), 4,8-bis[5-(4-cyano-3-hexylphenyl)thiophene-2-yl]benzo[1,2-c:4,5-c′]bis[1,2,5]thiadiazole]
solubility (solute concentration completely dissolved) (chlorobenzene, 25° C.): ≥ 0.03 wt %
solubility (solute concentration completely dissolved) (chloroform, 60° C.): ≥ 0.05 wt %
solubility (solute concentration completely dissolved) (chloroform, 80° C.): ≥ 0.2 wt %
solubility (solute concentration completely dissolved) (ortho-dichlorobenzene, 25° C.): ≥ 0.03 wt %
solubility (solute concentration completely dissolved) (para-chlorotoluene, 100° C.): ≥ 0.3 wt %

CCCCCCc1ccc(-c2ccc(-c3c4c(c(-c5ccc(-c6ccc(CCCCCC)c(C(F)(F)F)c6)s5)c5nsnc35)N=S=N4)s2)cc1C(F)(F)F [Compound (C9), 4,8-bis[5-(4-hexyl-3-(trifluoromethyl)phenyl)thiophene-2-yl]benzo[1,2-c:4,5-c′]bis[1,2,5]thiadiazole]
solubility (solute concentration completely dissolved) (chlorobenzene, 25° C.): ≥ 0.03 wt %
solubility (solute concentration completely dissolved) (mesitylene, 25° C.): ≥ 0.03 wt %
solubility (solute concentration completely dissolved) (mesitylene, 60° C.): ≥ 0.1 wt %
solubility (solute concentration completely dissolved) (mesitylene, 80° C.): ≥ 0.5 wt %
solubility (solute concentration completely dissolved) (ortho-dichlorobenzene, 25° C.): ≥ 0.03 wt %
solubility (solute concentration completely dissolved) (toluene, 25° C.): ≥ 0.03 wt %
solubility (solute concentration completely dissolved) (toluene, 60° C.): ≥ 0.1 wt %
solubility (solute concentration completely dissolved) (toluene, 80° C.): ≥ 0.5 wt %
